According to patent US4663327A, “1-heteroaryl-4-aryl-pyrazolin-5-ones” (priority 1984, dated 1987):
Values after ≈ are worked out from the molar mass of the structure shown.

How the values were obtained:
Leptosphaeria nodorum = Leptosphaeria nodorum test (wheat)/protective; format: in vivo; details: sprayed, evaluation 10 days after inoculation
Method: Leptosphaeria nodorum test (wheat)/protective Solvent: 100 parts by weight of dimethylformamide Emulsifier: 0.25 parts by weight of alkylaryl polyglycol ether To produce a suitable preparation of active compound, 1 part by weight of active compound is mixed with the stated amounts of solvent and emulsifier, and the concentrate is diluted with water to the desired concentration. To test for protective activity, young plants are sprayed with the preparation of active compound until dew-moist. After the spray coating has dried on, the plants are sprayed with a conidia suspension of Leptosphaeria nodorum. The plants remain for 48 hours in an incubation cabinet at 20° C. and 100% relative atmospheric humidity. The plants are placed in a greenhouse at a temperature of about 15° C. and a relative atmospheric humidity of about 80%. Evaluation is effected 10 days after the inoculation.

Cochliobolus sativus = Cochliobolus sativus test (barley)/protective; format: in vivo; details: sprayed, evaluation 7 days after inoculation
Method: Cochliobolus sativus test (barley)/protective Solvent: 100 parts by weight of dimethylformamide Emulsifier: 0.25 parts by weight of alkylaryl polyglycol ether To produce a suitable preparation of active compound, 1 part by weight of active compound is mixed with the stated amounts of solvent and emulsifier, and the concentrate is diluted with water to the desired concentration. To test for protective activity, young plants are sprayed with the preparation of active compound until dew-moist. After the spray coating has dried on, the plants are sprayed with a conidia suspension of Cochliobolus sativus. The plants remain in an incubation cabinet for 48 hours at 20° C. and 100% relative atmospheric humidity. The plants are placed in a greenhouse at a temperature of about 20° C. and a relative atmospheric humidity of about 80%. Evaluation is carried out 7 days after the inoculation.

Pyricularia oryzae = format: in vivo; details: rice, sprayed, disease infestation 4 days after inoculation
Coniophora puteana = assay: MIC on fungi in agar; details: 336 h
Method: (§1) After storage for 2 weeks at 28° C. and 60 to 70% relative atmospheric humidity, the MIC is determined.

Aspergillus niger = assay: MIC on fungi in agar; details: 336 h
Method: as §1

Chaetomium globosum = assay: MIC on fungi in agar; details: 336 h
Method: as §1

Penicillium glaucum = assay: MIC on fungi in agar; details: 336 h
Method: as §1

Lentinus tigrinus = assay: MIC on fungi in agar; details: 336 h
Method: as §1

Aureobasidium pullulans = assay: MIC on fungi in agar; details: 336 h
Method: as §1

Polyporus versicolor = assay: MIC on fungi in agar; details: Trametes versicolor, 336 h
Method: as §1

Trichoderma viride = assay: MIC on fungi in agar; details: 336 h
Method: as §1

Sclerophoma pityophila = assay: MIC on fungi in agar; details: Sydowia polyspora, 336 h
Method: as §1

Alternaria tenuis = assay: MIC on fungi in agar; details: Alternaria alternata, 336 h
Method: as §1

Botrytis cinerea = assay: Botrytis test (BEAN)/protective; format: in vivo; details: sprayed, infected spots on leaves evaluated 3 days after inoculation
Method: Botrytis test (BEAN)/protective Solvent: 4.7 parts by weight of acetone Emulsifier: 0.3 parts by weight alkyl aryl polyglycol ether To produce a suitable preparation of active compound, 1 pat by weight of active compound is mixed with the stated amounts of solvent and emulsifier, and the concentrate is diluted with water to the desired concentration. To test for protective activity, young plants are sprayed with the preparation of active compound until dripping wet. After the spray coating has dried on, 2 small pieces of agar covered with Botrytis cinerea are placed on each leaf. The inoculated plants are placed in a darkened humidity chamber at 20° C. 3 days after the inoculation, the size of the infected spots on the leaves is evaluated.

Phytophthora infestans = format: in vivo; details: tomato, sprayed, evaluation 3 days after inoculation

## O=c1c(-c2ccc(SC(F)(F)F)cc2)c[nH]n1-c1ccccn1 [Example 19]
Leptosphaeria nodorum
  protective activity: clearly superior activity compared with the prior art

## O=c1c(-c2cc(C(F)(F)F)cc(C(F)(F)F)c2)c[nH]n1-c1ccccn1 [Example 28]
Leptosphaeria nodorum
  protective activity: clearly superior activity compared with the prior art
Cochliobolus sativus
  protective activity: clearly superior activity compared with the prior art
Pyricularia oryzae
  protective activity: clearly superior activity compared with the prior art

## O=c1c(-c2ccccc2)c[nH]n1-c1ncccn1 [Example 81, 1-pyrimid-2-yl-4-phenyl-pyrazolin-5-one]
Coniophora puteana
  MIC: 0.5 µg/mL (≈ 2.1 µM)
Aspergillus niger
  MIC: 10 µg/mL (≈ 42 µM)
Chaetomium globosum
  MIC: 3.5 µg/mL (≈ 14.7 µM)
Penicillium glaucum
  MIC: 50 µg/mL (≈ 210 µM)
Lentinus tigrinus
  MIC: 5 µg/mL (≈ 21 µM)
Aureobasidium pullulans
  MIC: 50 µg/mL (≈ 210 µM)
Polyporus versicolor
  MIC: 2 µg/mL (≈ 8.39 µM)
Trichoderma viride
  MIC: 75 µg/mL (≈ 315 µM)
Sclerophoma pityophila
  MIC: 7.5 µg/mL (≈ 31.5 µM)
Alternaria tenuis
  MIC: 75 µg/mL (≈ 315 µM)

## O=c1c(-c2ccccc2Cl)c[nH]n1-c1ccccn1 [Example 7]
Pyricularia oryzae
  protective activity: clearly superior activity compared with the prior art

## O=c1c(-c2ccc(Cl)c(Cl)c2)c[nH]n1-c1ncccn1 [Example 89]
Botrytis cinerea
  protective activity: clearly superior activity compared with the prior art

## O=c1c(-c2ccc(C(F)(F)F)cc2)c[nH]n1-c1ncccn1 [Example 100]
Coniophora puteana
  MIC: 5 µg/mL (≈ 16.3 µM)
Aspergillus niger
  MIC: 500 µg/mL (≈ 1630 µM)
Leptosphaeria nodorum
  protective activity: clearly superior activity compared with the prior art
Chaetomium globosum
  MIC: 1 µg/mL (≈ 3.27 µM)
Phytophthora infestans
  protective activity: clearly superior activity compared with the prior art
Penicillium glaucum
  MIC: 10 µg/mL (≈ 32.7 µM)
Lentinus tigrinus
  MIC: 15 µg/mL (≈ 49 µM)
Aureobasidium pullulans
  MIC: 50 µg/mL (≈ 163 µM)
Cochliobolus sativus
  protective activity: clearly superior activity compared with the prior art
Polyporus versicolor
  MIC: 5 µg/mL (≈ 16.3 µM)
Trichoderma viride
  MIC: 500 µg/mL (≈ 1630 µM)
Sclerophoma pityophila
  MIC: 20 µg/mL (≈ 65.3 µM)
Alternaria tenuis
  MIC: 50 µg/mL (≈ 163 µM)

## O=c1c(-c2ccc(Cl)cc2)c[nH]n1-c1ccccn1 [Example 9]
Leptosphaeria nodorum
  protective activity: clearly superior activity compared with the prior art
Cochliobolus sativus
  protective activity: clearly superior activity compared with the prior art

## O=c1c(-c2ccc(Cl)c(Cl)c2)c[nH]n1-c1ccccn1 [Example 13]
Phytophthora infestans
  protective activity: clearly superior activity compared with the prior art

## O=c1c(-c2ccccc2Cl)c[nH]n1-c1ncccn1 [Example 84]
Coniophora puteana
  MIC: 2 µg/mL (≈ 7.33 µM)
Botrytis cinerea
  protective activity: clearly superior activity compared with the prior art
Aspergillus niger
  MIC: 10 µg/mL (≈ 36.7 µM)
Chaetomium globosum
  MIC: 1.5 µg/mL (≈ 5.5 µM)
Penicillium glaucum
  MIC: 20 µg/mL (≈ 73.3 µM)
Lentinus tigrinus
  MIC: 50 µg/mL (≈ 183 µM)
Aureobasidium pullulans
  MIC: 20 µg/mL (≈ 73.3 µM)
Polyporus versicolor
  MIC: 35 µg/mL (≈ 128 µM)
Trichoderma viride
  MIC: 35 µg/mL (≈ 128 µM)
Pyricularia oryzae
  protective activity: clearly superior activity compared with the prior art
Sclerophoma pityophila
  MIC: 10 µg/mL (≈ 36.7 µM)
Alternaria tenuis
  MIC: 50 µg/mL (≈ 183 µM)

## Cc1[nH]n(-c2ncccn2)c(=O)c1-c1ccccc1 [Example 106]
Leptosphaeria nodorum
  protective activity: clearly superior activity compared with the prior art

## O=c1c(-c2c(F)cccc2Cl)c[nH]n1-c1ncccn1 [Example 87]
Botrytis cinerea
  protective activity: clearly superior activity compared with the prior art

## O=c1c(-c2ccc(Cl)cc2)c[nH]n1-c1ncccn1 [Example 85, 1-pyrimid-2-yl-4-(4-chlorophenyl)-pyrazolin-5-one]
Coniophora puteana
  MIC: 3.5 µg/mL (≈ 12.8 µM)
Aspergillus niger
  MIC: 5 µg/mL (≈ 18.3 µM)
Chaetomium globosum
  MIC: 1 µg/mL (≈ 3.67 µM)
Penicillium glaucum
  MIC: 10 µg/mL (≈ 36.7 µM)
Lentinus tigrinus
  MIC: 7.5 µg/mL (≈ 27.5 µM)
Aureobasidium pullulans
  MIC: 50 µg/mL (≈ 183 µM)
Polyporus versicolor
  MIC: 5 µg/mL (≈ 18.3 µM)
Trichoderma viride
  MIC: 100 µg/mL (≈ 367 µM)
Sclerophoma pityophila
  MIC: 20 µg/mL (≈ 73.3 µM)
Alternaria tenuis
  MIC: 50 µg/mL (≈ 183 µM)

## Cc1ccc(-c2c[nH]n(-c3cc(C)c4ccccc4n3)c2=O)cc1 [Example 68]
Pyricularia oryzae
  protective activity: clearly superior activity compared with the prior art

## O=c1c(-c2cccc(OC(F)(F)F)c2)c[nH]n1-c1ncccn1 [Example 92]
Phytophthora infestans
  protective activity: clearly superior activity compared with the prior art
Cochliobolus sativus
  protective activity: clearly superior activity compared with the prior art

## O=c1c(-c2cc(C(F)(F)F)cc(C(F)(F)F)c2)c[nH]n1-c1ncccn1 [Example 104]
Pyricularia oryzae
  protective activity: clearly superior activity compared with the prior art

## O=c1c(-c2ccc(Cl)cc2Cl)c[nH]n1-c1ccccn1 [Example 12]
Botrytis cinerea
  protective activity: clearly superior activity compared with the prior art
Cochliobolus sativus
  protective activity: clearly superior activity compared with the prior art

## COc1ccccc1-c1c[nH]n(-c2ncccn2)c1=O [Example 90]
Coniophora puteana
  MIC: 5 µg/mL (≈ 18.6 µM)
Aspergillus niger
  MIC: 35 µg/mL (≈ 130 µM)
Chaetomium globosum
  MIC: 15 µg/mL (≈ 55.9 µM)
Penicillium glaucum
  MIC: 35 µg/mL (≈ 130 µM)
Lentinus tigrinus
  MIC: 100 µg/mL (≈ 373 µM)
Aureobasidium pullulans
  MIC: 75 µg/mL (≈ 280 µM)
Polyporus versicolor
  MIC: 10 µg/mL (≈ 37.3 µM)
Trichoderma viride
  MIC: 150 µg/mL (≈ 559 µM)
Sclerophoma pityophila
  MIC: 15 µg/mL (≈ 55.9 µM)
Alternaria tenuis
  MIC: 75 µg/mL (≈ 280 µM)

## O=c1c(-c2cccc(C(F)(F)F)c2)c[nH]n1-c1ccccn1 [Example 24]
Leptosphaeria nodorum
  protective activity: clearly superior activity compared with the prior art
Cochliobolus sativus
  protective activity: clearly superior activity compared with the prior art

## O=c1c(-c2ccccc2F)c[nH]n1-c1ccccn1 [Example 5]
Coniophora puteana
  MIC: 2 µg/mL (≈ 7.84 µM)
Aspergillus niger
  MIC: 3.5 µg/mL (≈ 13.7 µM)
Leptosphaeria nodorum
  protective activity: clearly superior activity compared with the prior art
Chaetomium globosum
  MIC: 0.5 µg/mL (≈ 1.96 µM)
Penicillium glaucum
  MIC: 5 µg/mL (≈ 19.6 µM)
Lentinus tigrinus
  MIC: 20 µg/mL (≈ 78.4 µM)
Aureobasidium pullulans
  MIC: 20 µg/mL (≈ 78.4 µM)
Cochliobolus sativus
  protective activity: clearly superior activity compared with the prior art
Polyporus versicolor
  MIC: 7.5 µg/mL (≈ 29.4 µM)
Trichoderma viride
  MIC: 35 µg/mL (≈ 137 µM)
Sclerophoma pityophila
  MIC: 15 µg/mL (≈ 58.8 µM)
Alternaria tenuis
  MIC: 20 µg/mL (≈ 78.4 µM)

## O=c1c(-c2ccc(Cl)cc2Cl)c[nH]n1-c1ncccn1 [Example 88]
Botrytis cinerea
  protective activity: clearly superior activity compared with the prior art

## O=c1c(-c2ccccc2Br)c[nH]n1-c1ncccn1 [Example 86]
Coniophora puteana
  MIC: 5 µg/mL (≈ 15.8 µM)
Aspergillus niger
  MIC: 10 µg/mL (≈ 31.5 µM)
Chaetomium globosum
  MIC: 1 µg/mL (≈ 3.15 µM)
Penicillium glaucum
  MIC: 50 µg/mL (≈ 158 µM)
Lentinus tigrinus
  MIC: 2 µg/mL (≈ 6.31 µM)
Aureobasidium pullulans
  MIC: 20 µg/mL (≈ 63.1 µM)
Polyporus versicolor
  MIC: 2 µg/mL (≈ 6.31 µM)
Trichoderma viride
  MIC: 35 µg/mL (≈ 110 µM)
Sclerophoma pityophila
  MIC: 10 µg/mL (≈ 31.5 µM)
Alternaria tenuis
  MIC: 20 µg/mL (≈ 63.1 µM)

## COc1ccc(-c2c[nH]n(-c3ncccn3)c2=O)cc1 [Example 91]
Coniophora puteana
  MIC: 5 µg/mL (≈ 18.6 µM)
Aspergillus niger
  MIC: 50 µg/mL (≈ 186 µM)
Chaetomium globosum
  MIC: 20 µg/mL (≈ 74.6 µM)
Penicillium glaucum
  MIC: 10 µg/mL (≈ 37.3 µM)
Lentinus tigrinus
  MIC: 100 µg/mL (≈ 373 µM)
Aureobasidium pullulans
  MIC: 150 µg/mL (≈ 559 µM)
Polyporus versicolor
  MIC: 20 µg/mL (≈ 74.6 µM)
Trichoderma viride
  MIC: 200 µg/mL (≈ 746 µM)
Sclerophoma pityophila
  MIC: 15 µg/mL (≈ 55.9 µM)
Alternaria tenuis
  MIC: 100 µg/mL (≈ 373 µM)

## Cc1cc(-n2[nH]cc(-c3ccc(C(F)(F)F)cc3)c2=O)nc(C)n1 [Example 122]
Pyricularia oryzae
  protective activity: clearly superior activity compared with the prior art

## Cc1ccccc1-c1c[nH]n(-c2ncccn2)c1=O [Example 96]
Botrytis cinerea
  protective activity: clearly superior activity compared with the prior art

## Cc1ccccc1-c1c[nH]n(-c2ncc(Cl)cn2)c1=O [Example 111]
Botrytis cinerea
  protective activity: clearly superior activity compared with the prior art

## O=c1c(-c2ccc(C(F)(F)F)cc2)c[nH]n1-c1ccccn1 [Example 25]
Pyricularia oryzae
  protective activity: clearly superior activity compared with the prior art

## Cc1cc(-n2[nH]cc(-c3ccc(C(F)(F)F)cc3)c2=O)cc(C)n1 [Example 80]
Pyricularia oryzae
  protective activity: clearly superior activity compared with the prior art

## O=c1c(-c2c(F)cccc2Cl)c[nH]n1-c1ccccn1 [Example 11]
Botrytis cinerea
  protective activity: clearly superior activity compared with the prior art
Pyricularia oryzae
  protective activity: clearly superior activity compared with the prior art

## O=c1c(-c2ccc(OC(F)(F)F)cc2)c[nH]n1-c1ncccn1 [Example 93]
Phytophthora infestans
  protective activity: clearly superior activity compared with the prior art

## COc1ccc(-c2c[nH]n(-c3ccccn3)c2=O)cc1 [Example 15]
Coniophora puteana
  MIC: 5 µg/mL (≈ 18.7 µM)
Aspergillus niger
  MIC: 20 µg/mL (≈ 74.8 µM)
Leptosphaeria nodorum
  protective activity: clearly superior activity compared with the prior art
Chaetomium globosum
  MIC: 0.5 µg/mL (≈ 1.87 µM)
Penicillium glaucum
  MIC: 75 µg/mL (≈ 281 µM)
Lentinus tigrinus
  MIC: 50 µg/mL (≈ 187 µM)
Aureobasidium pullulans
  MIC: 50 µg/mL (≈ 187 µM)
Polyporus versicolor
  MIC: 20 µg/mL (≈ 74.8 µM)
Trichoderma viride
  MIC: 1000 µg/mL (≈ 3740 µM)
Sclerophoma pityophila
  MIC: 50 µg/mL (≈ 187 µM)
Alternaria tenuis
  MIC: 50 µg/mL (≈ 187 µM)

## O=c1c(-c2cc(C(F)(F)F)ccc2Cl)c[nH]n1-c1ccccn1 [Example 26]
Leptosphaeria nodorum
  protective activity: clearly superior activity compared with the prior art
Cochliobolus sativus
  protective activity: clearly superior activity compared with the prior art
